In assay [1] the test system is hybridoma cell line I. Briefly: Harvest antibody titre, hybridoma cell line I. In kind it is cell-based. The following applies: DMEM + 5% FCS, control 113. As for the experimental part: (§1) […] Cells were cultured in either roller bottles or in shake-flasks, as in Example 1. Sodium butyrate was added to cultures immediately after inoculation.
Assay [2] relates to hybridoma cell line D. The experiment in a line: Harvest antibody titre, hybridoma cell line D. The settings on record: SFM + 10% FCS, control 29. In kind it is cell-based. As for the experimental part: (§2) Hybridoma cells were grown in suspension culture in either serum-free medium (see Example 1) or in DMEM supplemented with 10% (v/v), heat inactivated foetal calf serum. Cells were cultured in either roller bottles or in shake-flasks, as in Example 1. Sodium butyrate was added to cultures immediately after inoculation.

Assay [3] deals with CBMG human growth hormone producing cells. Briefly: Production of recombinant human growth hormone by CBMG cells (immunoradiometric assay). The class given is cell-based. The following applies: serum-free maintenance medium, control 1.0. As to the method: The molecular biology of adherent CBMG human growth hormone producing cells has been described (G. N. Pavlakis et al PNAS (USA) Vol. 80 pp 397-401 (1983)).
CBMG cells were inoculated into tissue culture flasks at a density of 0.7×10^5 cells/cm^2 in Dulbeccos Modified Eagles Minimum (DMEM) supplemented with 10% foetal calf serum.
After the cells in culture had grown to confluency, the DMEM serum supplemented medium was replaced by serum-free DMEM maintenance medium. Sodium butyrate was added at 1 mM and 5 mM after transferring the cells from serum supplemented medium to maintenance medium. Levels of human growth hormone in the culture supernatant were measured after 48 hours by immunoradiometric assay.

For assay [4], the system named is hybridoma cell line J. Briefly: Harvest antibody titre, hybridoma cell line J. The class given is cell-based. As to the method: as §2
The subject of assay [5] is hybridoma cell line F. The experiment in a line: Harvest antibody titre, hybridoma cell line F. The following applies: SFM + 5% FCS, 0.50 mM butyrate, control 90. The class given is cell-based. As for the experimental part:
as §1

The test system of assay [6] is hybridoma cell line L. Briefly: Harvest antibody titre, hybridoma cell line L. In kind it is cell-based. The following applies: SFM, control 34. As for the experimental part:
as §2

The subject of assay [7] is hybridoma cells (as Example 1, NB1/19). Briefly: Butyrate-enhanced antibody production in hybridoma cells cultured in serum supplemented medium. The class given is cell-based, mouse. The following applies: DMEM + 10% foetal calf serum. As to the method:
The IgM secreting mouse hybridoma cell line NB1/19 was grown in suspension culture in Dulbeccos Modified Eagles Minimum (DMEM) serum-free medium containing albumin, insulin, transferrin, gentamycin and other additives as required to cultivate cells in suspension culture. The NB1/19 cell line produces a mouse monoclonal antibody having specificity for an antigenic determinant of human B-type blood cells. The preparation of this call line is described in detail in the specification of British Patent GB 2097425B. It will be appreciated, however, that other hybridoma cell lines may be used in place of this particular cell line as appropriate in this and other examples.
The cells were grown to a viable cell density of 1.0-1.5×10^6 cells/ml. Viable cell density was determined by counting the number of cells which exclude trypan blue, a staining agent. A sample of the suspension culture was diluted in a serum-free medium to a density of about 1.3×10^5 cells/ml. […]
The shake flasks were gassed with 5% CO2-95% air, and sealed and incubated with shaking at 37° C. for up to 207 hours. (Table 1). Samples ([…]) were removed from the culture by pipette. 100 μl was used to determine viable cell count and the reminder centrifuged at 300×g for five minutes. Supernatants were stored at −20° C. prior to antibody determination by enzyme linked immunosorbent assay (ELISA).
The protocol for this experiment is similar to that outlined in Example 1, except that the cells were cultured in Dulbeccos Modified Eagles Minimum medium supplemented with 10% foetal calf serum.

With `CCCC(=O)[O-].[Na+]` [sodium butyrate], the “HARVEST ANTIBODY TITER” value in assay [1] (0.35 mM butyrate) is 135 mg/L; in assay [1] (0.50 mM butyrate), 154 mg/L; in assay [2] (0.35 mM butyrate), 39 mg/L; in assay [2] (0.50 mM butyrate), 50 mg/L; in assay [4] (DMEM + 10% FCS, 0.50 mM butyrate, control 32) it was 54 mg/L; in assay [4] (DMEM + 10% FCS, 0.75 mM butyrate, control 32), 55 mg/L. Besides, the “HARVEST ANTIBODY TITER” value in assay [4] (SFM, 0.50 mM butyrate, control 37) was determined as 72 mg/L; in assay [4] (SFM, 1.00 mM butyrate, control 37) it was 102 mg/L; in assay [5] it was 132 mg/L; in assay [6] (0.25 mM butyrate) it was 50 mg/L; in assay [6] (0.50 mM butyrate), 58 mg/L. In addition, the “Concentration of hGH in supernatant” value in assay [3] (1 mM sodium butyrate) came out at 1.1 arbitrary units/48 hours; in assay [3] (5 mM sodium butyrate), 2.3 arbitrary units/48 hours. Also, the “Average specific rate of antibody production” value came out at 39 μg/10^6 cells/day in assay [7] (0.5 mM sodium butyrate) and 69 μg/10^6 cells/day in assay [7] (0.75 mM sodium butyrate). Further, the figures for the Maximum antibody concentration in assay [7] (0.5 mM sodium butyrate) and in assay [7] (0.75 mM sodium butyrate) were 54 µg/mL and 55 µg/mL, respectively.
